Reference: publication PMC12195648 (Pharmaceuticals, 2025)
Read-outs that look alike come from different tables or passages of the source.

Legend:
recombinant Abl1 kinase = biological target: T1, recombinant Abl1 kinase (Homo sapiens, UniProt P00519); experiment: Abl1 kinase inhibition assay (peptide substrate, [γ-33P]ATP); type: biochemical
T1 construct: made in house
Description: The inhibitory activity of the synthesized compounds was assessed on an in-house produced recombinant Abl1 kinase. The assay utilized 500 µM peptide […] as a substrate in the presence of 1 µM ATP + [γ-33P]ATP (0.05 µCi per reaction) and the test compound in a final volume of 10 µL of reaction buffer (60 mM HEPES-NaOH, pH 7.5, 3 mM MgCl2, 3 mM MnCl2, 3 μM Na-orthovanadate, 1.2 mM DTT, 2.5 μg/50 μL PEG20.000). The reaction was terminated by adding 5 µL of 3% aq. H3PO4. Aliquots were spotted onto P-81 phosphocellulose (Whatman, Maidstone, UK), washed three times with 0.5% aq. H3PO4, and air-dried. Peptide phosphorylation was quantified through digital autoradiography (FLA-7000; Fujifilm, Tokyo, Japan).

KCL22 cells = experiment: Cytotoxicity, resazurin assay, KCL22; type: cell-based, human; conditions: for SI (KCL22): GI50 HEK-293T / GI50 KCL22; for GI50: Homo sapiens, KCL-22, 72 h, resazurin, GI50 ± SD
Description: (§1) The development of the KCL22 subclone B8 (T315I, 100%) has been previously detailed. All cell lines were maintained in a humidified incubator at 37 °C and 5% CO2, following the manufacturer’s instructions, in the appropriate medium supplemented with 10% foetal bovine serum, penicillin (100 IU/mL), streptomycin (100 µg/mL), and glutamine (4 mM).
(§2) Cytotoxicity was assessed utilizing resazurin, an indicator dyes that measures oxidation-reduction reactions in the mitochondria of living cells. Cells were seeded into 96-well plates and treated with the compounds for 72 h (six different doses of each compound, in triplicate).

K562 cells = experiment: Cytotoxicity, resazurin assay, K562; type: cell-based, human; conditions: for SI (K562): GI50 HEK-293T / GI50 K562; for GI50: Homo sapiens, K562, 72 h, resazurin, GI50 ± SD
Description: as §1, §2

KCL22-B8 cells = experiment: Cytotoxicity, resazurin assay, KCL22-B8 (Bcr-Abl T315I); type: cell-based, human; conditions: for SI (KCL22-B8): GI50 HEK-293T / GI50 KCL22-B8; for GI50: 72 h, resazurin, GI50 ± SD, Bcr-Abl T315I, imatinib-resistant
Description: as §1, §2

HEK-293T cells = experiment: Cytotoxicity, resazurin assay, non-neoplastic HEK-293T; type: cell-based; conditions: Homo sapiens, 72 h, GI50 ± SD
Description: as §1, with “The human cell line KCL22 was sourced from the German Collection of Microorganisms and Cell Cultures, while K562 and HEK-293T cells were obtained from the European Collection of Authenticated Cell Cultures. The” for “The”
Cytotoxicity was assessed utilizing resazurin, an indicator dyes that measures oxidation-reduction reactions in the mitochondria of living cells. Cells were seeded into 96-well plates and treated with the compounds for 72 h (six different doses of each compound, in triplicate). After treatment, a solution of resazurin (Merck, Prague, Czech Republic) was added for 4 h, and the fluorescence of resorufin corresponding to viable cell quantity was measured at 544 nm/590 nm (excitation/emission) using a Fluoroskan Ascent microplate reader (LabSystems, Helsinki, Finland).

[1] = system: KCL22 cells with Bcr-Abl^T315I; conditions: cited from earlier work
[2] = experimental pIC50 = −logIC50 on Abl, read-out: pIC50 Exp (converted)
[3] = in vitro inhibition of Abl1 kinase, 1 µM ATP, at least three independent experiments, read-out: IC50 Abl

T1 sequence (P00519 whole entry): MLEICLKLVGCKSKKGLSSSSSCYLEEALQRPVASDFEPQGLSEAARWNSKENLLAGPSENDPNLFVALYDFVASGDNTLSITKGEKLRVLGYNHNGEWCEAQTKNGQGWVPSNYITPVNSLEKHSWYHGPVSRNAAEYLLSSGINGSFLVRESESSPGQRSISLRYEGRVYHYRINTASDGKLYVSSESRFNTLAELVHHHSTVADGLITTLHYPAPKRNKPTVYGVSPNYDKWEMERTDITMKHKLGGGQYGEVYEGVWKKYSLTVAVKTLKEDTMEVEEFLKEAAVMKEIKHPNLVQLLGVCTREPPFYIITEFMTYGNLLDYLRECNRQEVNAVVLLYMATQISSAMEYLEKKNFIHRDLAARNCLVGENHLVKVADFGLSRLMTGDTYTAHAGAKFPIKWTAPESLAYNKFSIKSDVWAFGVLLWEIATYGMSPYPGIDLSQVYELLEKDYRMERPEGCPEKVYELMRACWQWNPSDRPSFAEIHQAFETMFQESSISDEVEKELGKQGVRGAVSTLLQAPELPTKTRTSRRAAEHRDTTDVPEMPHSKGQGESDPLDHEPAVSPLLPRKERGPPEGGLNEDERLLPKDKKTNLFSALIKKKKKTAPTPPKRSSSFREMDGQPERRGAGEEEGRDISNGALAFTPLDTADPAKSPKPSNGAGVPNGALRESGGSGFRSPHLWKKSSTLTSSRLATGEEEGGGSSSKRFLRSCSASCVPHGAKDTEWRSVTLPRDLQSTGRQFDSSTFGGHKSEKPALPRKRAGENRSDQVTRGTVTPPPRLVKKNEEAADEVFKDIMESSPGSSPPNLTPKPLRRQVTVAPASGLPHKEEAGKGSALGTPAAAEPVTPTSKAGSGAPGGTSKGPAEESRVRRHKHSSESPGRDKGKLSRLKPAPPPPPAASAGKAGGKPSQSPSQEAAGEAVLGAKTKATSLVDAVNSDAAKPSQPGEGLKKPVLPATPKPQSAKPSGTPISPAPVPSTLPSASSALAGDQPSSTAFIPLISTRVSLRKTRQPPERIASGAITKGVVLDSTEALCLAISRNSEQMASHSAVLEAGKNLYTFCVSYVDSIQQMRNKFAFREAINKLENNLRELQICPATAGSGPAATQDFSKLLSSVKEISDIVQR

OCCOCCN1CCN(c2ccc(Nc3nc(Nc4cccc(F)c4)c4ncn(CC5CC5)c4n3)cc2)CC1 [Compound 7a, 2-(2-(4-(4-((9-(Cyclopropylmethyl)-6-((3-fluorophenyl)amino)-9H-purin-2-yl)amino)phenyl)piperazin-1-yl)ethoxy)ethan-1-ol]
IC50 (recombinant Abl1 kinase; [2]): 0.13 µM
IC50 (recombinant Abl1 kinase; [3]): 0.13 ± 0.03 µM
SI (KCL22) (KCL22 cells): 2.9
GI50 (KCL22 cells): 2.38 ± 1.12 µM
SI (K562) (K562 cells): 5.0
GI50 (K562 cells): 1.37 ± 0.61 µM
SI (KCL22-B8) (KCL22-B8 cells): 0.4
GI50 (KCL22-B8 cells; Homo sapiens): 17.4 ± 2.02 µM
GI50 (HEK-293T cells): 6.85 ± 0.66 µM

N#Cc1cccc(Nc2nc(Nc3ccc(N4CCN(CCO)CC4)cc3)nc3c2ncn3CC2CC2)c1 [Compound 7b, 3-((9-(Cyclopropylmethyl)-2-((4-(4-(2-hydroxyethyl)piperazin-1-yl)phenyl)amino)-9H-purin-6-yl)amino)benzonitrile]
IC50 (recombinant Abl1 kinase; [2]): 0.46 µM
IC50 (recombinant Abl1 kinase; [3]): 0.46 ± 0.15 µM
SI (KCL22) (KCL22 cells): 1.1
GI50 (KCL22 cells): 13.1 ± 2.21 µM
SI (K562) (K562 cells): 3.6
GI50 (K562 cells): 4.04 ± 1.87 µM
SI (KCL22-B8) (KCL22-B8 cells): 0.8
GI50 (KCL22-B8 cells; Homo sapiens): 17.9 ± 2.71 µM
GI50 (HEK-293T cells): 14.8 ± 0.91 µM

N#Cc1cccc(Nc2nc(Nc3ccc(N4CCN(CCO)CC4)nc3)nc3c2ncn3CC2CC2)c1 [Compound 7c, 3-((9-(Cyclopropylmethyl)-2-((6-(4-(2-hydroxyethyl)piperazin-1-yl)pyridin-3-yl)amino)-9H-purin-6-yl)amino)benzonitrile]
IC50 (recombinant Abl1 kinase; [2]): 0.19 µM
IC50 (recombinant Abl1 kinase; [3]): 0.19 ± 0.05 µM
SI (KCL22) (KCL22 cells): 16
GI50 (KCL22 cells): 1.54 ± 1.02 µM
fold more potent than 7b (KCL22 cells; KCL22 cells, GI50 ratio): approximately 8.5 fold
GI50 (K562 cells): 0.3 ± 0.11 µM
fold more potent than 7b (K562 cells; K562 cells, GI50 ratio): 13 fold
SI (KCL22-B8) (KCL22-B8 cells): 0.8
GI50 (KCL22-B8 cells; Homo sapiens): > 25 µM
GI50 (HEK-293T cells): > 25 µM

OCCN1CCN(c2ccc(Nc3nc(Nc4cccc(Br)c4)c4ncn(CC5CC5)c4n3)cc2)CC1 [Compound 7d, 2-(4-(4-((6-((3-Bromophenyl)amino)-9-(cyclopropylmethyl)-9H-purin-2-yl)amino)phenyl)piperazin-1-yl)ethan-1-ol]
IC50 (recombinant Abl1 kinase; [2]): 0.21 µM
IC50 (recombinant Abl1 kinase; [3]): 0.21 ± 0.01 µM
SI (KCL22) (KCL22 cells): 2.7
GI50 (KCL22 cells): 2.96 ± 0.97 µM
SI (K562) (K562 cells): 5.5
GI50 (K562 cells): 1.44 ± 0.91 µM
SI (KCL22-B8) (KCL22-B8 cells): 0.4
GI50 (KCL22-B8 cells; Homo sapiens): 20.1 ± 2.35 µM
GI50 (HEK-293T cells): 7.87 ± 1.53 µM

COC(=O)c1ccc(Nc2nc(Nc3ccc(N4CCN(CCO)CC4)cc3)nc3c2ncn3CC2CC2)cc1Cl [Compound 7e, Methyl 2-chloro-4-((9-(cyclopropylmethyl)-2-((4-(4-(2-hydroxyethyl)piperazin-1-yl)phenyl)amino)-9H-purin-6-yl)amino)benzoate]
IC50 (recombinant Abl1 kinase; [2]): 0.42 µM
IC50 (recombinant Abl1 kinase; [3]): 0.42 ± 0.08 µM
SI (KCL22) (KCL22 cells): 1.7
GI50 (KCL22 cells): 3.88 ± 1.46 µM
SI (K562) (K562 cells): 2.7
GI50 (K562 cells): 2.19 ± 1.42 µM
GI50 (KCL22-B8 cells): 15.4 ± 0.98 µM
SI (KCL22-B8) (KCL22-B8 cells): 0.4
GI50 (KCL22-B8 cells; Homo sapiens): 13.8 µM
GI50 (HEK-293T cells): 5.98 ± 2.78 µM

OCCN1CCN(c2ccc(Nc3nc(Nc4ccc(Cl)c(C(F)(F)F)c4)c4ncn(CC5CC5)c4n3)cc2)CC1 [Compound 7f, 2-(4-(4-((6-((4-Chloro-3-(trifluoromethyl)phenyl)amino)-9-(cyclopropylmethyl)-9H-purin-2-yl)amino)phenyl)piperazin-1-yl)ethan-1-ol]
IC50 (recombinant Abl1 kinase; [2]): 1.26 µM
IC50 (recombinant Abl1 kinase; [3]): 1.26 ± 0.65 µM
SI (KCL22) (KCL22 cells): 0.3
GI50 (KCL22 cells): 12.4 ± 4.28 µM
SI (K562) (K562 cells): 1.1
GI50 (K562 cells): 3.56 ± 0.52 µM
GI50 (KCL22-B8 cells): 13.8 ± 3.05 µM
SI (KCL22-B8) (KCL22-B8 cells): 0.3
GI50 (KCL22-B8 cells; Homo sapiens): 15.4 µM
GI50 (HEK-293T cells): 3.96 ± 0.57 µM

COc1cc(Nc2nc(Nc3ccc(N4CCN(CCO)CC4)cc3)nc3c2ncn3CC2CC2)ccc1Br [Compound 7g, 2-(4-(4-((6-((4-Bromo-3-methoxyphenyl)amino)-9-(cyclopropylmethyl)-9H-purin-2-yl)amino)phenyl)piperazin-1-yl)ethan-1-ol]
IC50 (recombinant Abl1 kinase; [2]): 0.791 µM
IC50 (recombinant Abl1 kinase; [3]): 0.79 ± 0.14 µM
SI (KCL22) (KCL22 cells): 0.8
GI50 (KCL22 cells): 5.51 ± 1.08 µM
SI (K562) (K562 cells): 1.8
GI50 (K562 cells): 2.34 ± 1.04 µM
GI50 (KCL22-B8 cells): 16.6 ± 0.92 µM
SI (KCL22-B8) (KCL22-B8 cells): 0.3
GI50 (KCL22-B8 cells; Homo sapiens): 15.4 µM
GI50 (HEK-293T cells): 4.32 ± 1.42 µM

Cc1cn(-c2cc(NC(=O)c3ccc(C)c(Nc4nccc(-c5cccnc5)n4)c3)cc(C(F)(F)F)c2)cn1 [nilotinib]
GI50 [1]: > 20 µM
